Data as given in patent publication US20240041878A1, “APELIN RECEPTOR MODULATORS FOR TREATMENT OF A DISORDER OR DISEASE ASSOCIATED WITH BBB PERMEABILITY” (BioAge Labs, Inc., priority 2022, published 2024).

Legend:
[1] = tested on: Mouse astrocyte cells; test: CXCL1 and IL-6 ELISA of astrocyte culture media after RAC treatment; format: cell-based
Procedure: To stimulate astrocytes into a reactive state found in aging and neurodegenerative diseases per previous publications (Liddelow et al., 2017; Barbar et al., 2020), a combination of the cytokines TNF-α and IL-1α, and complement factor C1q, were added at 30 ng/mL, 3 ng/mL, and 400 ng/mL, respectively, into astrocyte culture media to make 'reactive astrocyte cocktail' (RAC) media. […] Bachem, Cat. #4029110), BAY-11-7082 (50 μM; Abcam, Cat. #ab141228) or equal volume of vehicle (0.01% DMSO in PBS) (hereafter referred to as 'RAC treatment'). Cells in Groups 3-6 were treated with RAC for 24 hours, with or without the test compounds (n=4 per group). • Group 1: Control [CON] • Group 2: CON+BGE-105 (50 nM) [CON+105] • Group 3: Reactive control treated with RAC only [RAC] • Group 4: RAC+BGE-105 (50 nM) [RAC+105] • Group 5: RAC+Pyrm-Apelin-13 (50 nM) • Group 6: RAC+BAY-11-7082 (NF-κB inhibitor; 50 μM) [RAC+BAY] Media from each tested cell group was collected for cytokine release analysis. Cells were lysed for RNA collection and RT-PCR was performed to synthesis cDNA under standard conditions. Next, transcriptome analysis was performed to determine the expression level of astrocyte genes or astrocyte responsive genes. Changes of expression was normalized to β-actin (FIGS. 8 and 9). Exemplary biomarkers include CCL2, CXCL10, CXCL11, CXCL1, CXCL2, CXCL3, CXCL8, EDN1, […]3, CIS, CTRL, C3, CFB, VEGF, and IL-6. For analysis of cytokines secreted by astrocytes, culture media was collected after RAC treatment, centrifuged at 10,000 RPM for 5 minutes to pellet any debris, and supernatant was transferred to a new tube and assayed immediately or frozen at -80° C. For individual analysis of CXCL1 or IL-6 concentrations, cell culture supernatant was diluted 1:50 or 1:10, respectively, and assessed using mouse-specific ELISA kits per manufacturer's protocols (R&D Systems, Cat. #DY453 and #DY406).

[2] = tested on: 26 month-old mice; test: Mouse Cytokine Array Panel on plasma of aged mice; format: in vivo; conditions: 50 mg/kg BID P.O. one week, 10 of 40 cytokines detectable
Procedure: The mice were handled in accordance with principles and guidelines established by the “Guide for the Care and Use of Laboratory Animals” and overseen by the BioAge Lab's institutional animal care and use committee (IACUC). Mice were housed conventionally in a constant temperature (20-22° C.) and humidity (40%-60%) animal room with a 12/12 h light/dark cycle and free access to food and water. 26 month-old mice were randomized based on the body weight and body condition scores to two groups (vehicle or BGE-105, n=8). 4 month-old female mice were used as an additional control group (vehicle, n=4). Mice were administered P.O. vehicle or BGE-105 at 50 mg/kg (BID) for one week. After completion of dosing, blood samples were collected via retro-orbital bleeding under isoflurane anesthesia into K2-EDTA tubes to prevent coagulation. Mice were euthanized via transcardiac perfusion under isoflurane anesthesia. Whole blood was centrifuged to isolate plasma, which was stored at −80° C. until further experimentation.
For qualitative analysis of 40 different cytokines, plasma samples were assessed with the Mouse Cytokine Array Panel (R&D Systems) according to manufacturer's instructions. […] The optical of each dot on the array serves as a relative measure of cytokine abundance (e.g., a more intensely-stained dot denotes more cytokine present in the sample) and was analyzed with ImageJ software (NIH).

[3] = tested on: Mouse primary astrocytes; test: Astrocyte glutamate uptake; format: cell-based; conditions: RAC+BGE-105 [10 nM, 50 nM, 250 nM] versus RAC
Procedure: To stimulate astrocytes into a reactive state found in aging and neurodegenerative diseases per previous publications (Liddelow et al., 2017; Barbar et al., 2020), a combination of the cytokines TNF-α and IL-1α, and complement factor C1q, were added at 30 ng/mL, 3 ng/mL, and 400 ng/mL, respectively, into astrocyte culture media to make 'reactive astrocyte cocktail' (RAC) media. […] Bachem, Cat. #4029110), BAY-11-7082 (50 μM; Abcam, Cat. #ab141228) or equal volume of vehicle (0.01% DMSO in PBS) (hereafter referred to as 'RAC treatment'). […] Fresh HBSS was added to each well and 100 μM glutamate (Sigma, Cat. #G1251) was added to each well. Empty wells not containing cells were filled with HBSS and 100 μM [NT] negative control. Cells were incubated at room temperature for 3 hours before HBSS was collected and glutamate concentration determined by colorimetric assay (Sigma, Cat. #MAK004). Relative change in glutamate uptake was calculated compared to negative control wells.

COc1cccc(OC)c1-n1c(NS(=O)(=O)[C@@H](C)[C@H](C)c2ncc(C)cn2)nnc1-c1cncc(C)c1 [BGE-105, (2S,3R)—N-(4-(2,6-dimethoxyphenyl)-5-(5-methyl-3-pyridinyl)-4H-1,2,4-triazol-3-yl)-3-(5-methyl-2-pyrimidinyl)-2-butanesulfonamide]
concentration of CXCL1 and IL-6 in media of control astrocytes ([1]; CON+105 (50 nM) versus CON): no or minimal impacts | astrocyte release of CXCL1 (FIG. 9) ([1]; RAC+105, BGE-105 50 nM, versus RAC, p=0.0032): greatly reduced | CXCL1 concentration/release (FIG. 12) ([1]; RAC+BGE-105 50 nM): about 40000 pg/ml | IL-6 concentration/release (FIG. 12) ([1]; RAC+BGE-105 50 nM): 5000 to 10000 pg/mL | astrocytic release of IL-6 (FIG. 9) ([1]; RAC+BGE-105, 50 nM, versus RAC, p=0.0008): reduced | average decrease of optical density of the detectable cytokines in plasma cytokine array [2]: 28% | percentage of glutamate uptake in RAC astrocytes [3]: significantly and statistically increased
